In US9695176B2, “Substituted imidazo[1,5-a]pyrazines as CGRP receptor antagonists” (BRISTOL-MYERS SQUIBB COMPANY, priority 2012, dated 2017) one finds IC50 data, which are given here for four molecules.

Human CGRP Receptor, sequence (Q16602 23-461): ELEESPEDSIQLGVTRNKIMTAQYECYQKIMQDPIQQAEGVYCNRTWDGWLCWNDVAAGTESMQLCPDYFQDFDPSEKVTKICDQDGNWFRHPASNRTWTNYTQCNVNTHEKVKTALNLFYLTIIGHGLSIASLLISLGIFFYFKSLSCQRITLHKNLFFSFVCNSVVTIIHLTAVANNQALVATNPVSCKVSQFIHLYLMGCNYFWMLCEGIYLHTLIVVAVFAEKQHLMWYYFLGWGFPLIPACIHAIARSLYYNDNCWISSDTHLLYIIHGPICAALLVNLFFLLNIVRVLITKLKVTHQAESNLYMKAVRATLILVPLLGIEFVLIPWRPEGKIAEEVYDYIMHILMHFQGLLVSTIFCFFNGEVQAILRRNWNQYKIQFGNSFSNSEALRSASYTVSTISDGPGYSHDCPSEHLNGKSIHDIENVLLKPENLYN
Human CGRP Receptor, sequence (O60894 27-148): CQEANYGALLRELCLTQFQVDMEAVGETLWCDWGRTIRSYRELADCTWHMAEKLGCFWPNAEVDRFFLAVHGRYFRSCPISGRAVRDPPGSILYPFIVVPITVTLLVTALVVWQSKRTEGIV

This test addresses Human CGRP Receptor (Homo sapiens (Human), UniProt O60894+Q16602). Nature of the test: Radioligand binding assay, [125I]-CGRP displacement on SK-N-MC membranes. As for the experimental part: Tissue Culture. SK-N-MC cells were grown at 37° C. in 5% CO2 as a monolayer in medium consisting of MEM with Earle's salts and L-glutamine (Invitrogen) supplemented with 10% fetal bovine serum (Invitrogen).
Membrane Preparation. Crude membranes were prepared from SK-N-MC cells expressing CGRP receptors. […] The cells were transferred from plates to polypropylene tubes (16×100 mm) and homogenized using a polytron. Homogenates were centrifuged at 32,000×g for 30 min. The pellets were resuspended in cold hypotonic lysis buffer with 0.1% mammalian protease inhibitor cocktail (Sigma) and assayed for protein concentration. The SK-N-MC homogenate was aliquoted and stored at −80° C.
Radioligand Binding Assay. The compounds of invention were solubilized and carried through serial dilutions using 100% DMSO. Aliquots from the compound serial dilutions were further diluted 25 fold into assay buffer (50 mM Tris-Cl pH 7.5, 5 mM MgCl2, 0.005% Triton X-100) and transferred (volume 50 μl) into 96 well assay plates. […] SK-N-MC membranes were thawed, diluted in assay buffer with fresh 0.1% mammalian protease inhibitor cocktail (Sigma), and re-homogenized. SK-N-MC homogenate (7 μg/well) was added in a volume of 100 μl. The assay plates were then incubated at room temperature for 2 h. Assays were stopped by addition of excess cold wash buffer (50 mM Tris-Cl pH 7.5, 0.1% BSA) immediately followed by filtration over glass fiber filters (Whatman GF/B) previously soaked in 0.5% PEI. Non-specific binding was defined with 1 μM beta-CGRP (Bachem). Protein bound radioactivity was determined using a gamma or scintillation counter. […] All compounds of invention were evaluated in at least two separate experiments.
As usually defined, the IC50 is the midpoint of a concentration-inhibition curve. Molecule `Cc1cc(CC(OC(=O)N2CCC(c3cc4ccccc4[nH]c3=O)CC2)c2ncc3n2CCN(C2CCCCC2)C3)cc2cn[nH]c12` (racemic) [Example 4, (±)-1-(7-Cyclohexyl-5,6,7,8-tetrahydroimidazo[1,5-a]pyrazin-3-yl)-2-(7-methyl-1H-indazol-5-yl)ethyl 4-(2-oxo-1,2-dihydroquinolin-3-yl)piperidine-1-carboxylate] came in with an IC50 of 0.22 nM.

`CCN1CCn2c(cnc2C(Cc2cc(C)c3[nH]ncc3c2)OC(=O)N2CCC(c3cc4ccccc4[nH]c3=O)CC2)C1` (racemic) [Example 2, (±)-1-(7-ethyl-5,6,7,8-tetrahydroimidazo[1,5-a]pyrazin-3-yl)-2-(7-methyl-1H-indazol-5-yl)ethyl 4-(2-oxo-1,2-dihydroquinolin-3-yl)piperidine-1-carboxylate] yielded an IC50 of 1.7 nM.

`Cc1cc(CC(OC(=O)N2CCC(c3cc4ccccc4[nH]c3=O)CC2)c2ncc3n2CCN(Cc2ccccc2)C3)cc2cn[nH]c12` (racemic) [Example 1, (±)-1-(7-Benzyl-5,6,7,8-tetrahydroimidazo[1,5-c]pyrazin-3-yl)-2-(7-methyl-1H-indazol-5-yl)ethyl 4-(2-oxo-1,2-dihydroquinolin-3-yl)piperidine-1-carboxylate] came in with an IC50 of 0.26 nM.

Molecule `Cc1cc(CC(OC(=O)N2CCC(c3cc4ccccc4[nH]c3=O)CC2)c2ncc3n2CCNC3)cc2cn[nH]c12` (racemic) [Example 3, (±)-2-(7-methyl-1H-indazol-5-yl)-1-(5,6,7,8-tetrahydroimidazo[1,5-a]pyrazin-3-yl)ethyl 4-(2-oxo-1,2-dihydroquinolin-3-yl)piperidine-1-carboxylate] had an IC50 of 2.95 nM.
